Measured values as given in the NIST ThermoML archive (doi:10.1021/acs.jced.5b00931).
± gives the expanded uncertainty stated by the source.

[1] = 333.15 K; 101.33 kPa; Liquid; Falling or rolling sphere viscometry
[2] = 333.15 K; 101.33 kPa; Liquid; Vibrating tube method
[3] = 338.15 K; 101.33 kPa; Liquid; Falling or rolling sphere viscometry
[4] = 338.15 K; 101.33 kPa; Liquid; Vibrating tube method
[5] = 343.15 K; 101.33 kPa; Liquid; Falling or rolling sphere viscometry
[6] = 343.15 K; 101.33 kPa; Liquid; Vibrating tube method
[7] = 348.15 K; 101.33 kPa; Liquid; Falling or rolling sphere viscometry
[8] = 348.15 K; 101.33 kPa; Liquid; Vibrating tube method
[9] = 353.15 K; 101.33 kPa; Liquid; Falling or rolling sphere viscometry
[10] = 353.15 K; 101.33 kPa; Liquid; Vibrating tube method
[11] = 358.15 K; 101.33 kPa; Liquid; Falling or rolling sphere viscometry
[12] = 358.15 K; 101.33 kPa; Liquid; Vibrating tube method
[13] = 363.13 K; 101.33 kPa; Liquid; Vibrating tube method
[14] = 363.15 K; 101.33 kPa; Liquid; Falling or rolling sphere viscometry

For `CCCC[N+]1(C)CCCCC1.O=S(=O)([O-])C(F)(F)F` [1-butyl-1-methylpiperidinium trifluoromethanesulfonate], the viscosity [1] was 107 ± 11 mPa·s, the mass density [2] was 1216.8 ± 2 kg/m3 and the viscosity [3] was 84.6 ± 8.6 mPa·s. For the same molecule, the mass density [4] was 1213.3 ± 2 kg/m3, the viscosity [5] was 67.8 ± 6.8 mPa·s and the mass density [6] was 1209.8 ± 2 kg/m3. It also gave a viscosity [7] of 55.2 ± 5.5 mPa·s, a mass density [8] of 1206.4 ± 2 kg/m3 and a viscosity [9] of 45.6 ± 4.6 mPa·s. For the same molecule, the mass density [10] was 1202.9 ± 2 kg/m3, the viscosity [11] was 38 ± 3.8 mPa·s and the mass density [12] was 1199.5 ± 2 kg/m3. It also gave a mass density [13] of 1196.1 ± 2 kg/m3 and a viscosity [14] of 32 ± 3.2 mPa·s.
`CCCC[N+]1(C)CCCC1.O=S(=O)([O-])C(F)(F)F` [1-butyl-1-methylpyrrolidinium trifluoromethanesulfonate] gave a viscosity (293.15 K; 101.33 kPa; Liquid; Falling or rolling sphere viscometry) of 217 ± 24 mPa·s, a mass density (293.15 K; 101.33 kPa; Liquid; Vibrating tube method) of 1255.7 ± 2 kg/m3 and a viscosity (298.15 K; 101.33 kPa; Liquid; Falling or rolling sphere viscometry) of 164 ± 18 mPa·s. For the same molecule, the mass density (298.15 K; 101.33 kPa; Liquid; Vibrating tube method) was 1252 ± 2 kg/m3, the viscosity (303.15 K; 101.33 kPa; Liquid; Falling or rolling sphere viscometry) was 128 ± 13 mPa·s and the mass density (303.15 K; 101.33 kPa; Liquid; Vibrating tube method) was 1248.3 ± 2 kg/m3. It also gave a viscosity (308.15 K; 101.33 kPa; Liquid; Falling or rolling sphere viscometry) of 101 ± 10 mPa·s, a mass density (308.15 K; 101.33 kPa; Liquid; Vibrating tube method) of 1244.7 ± 2 kg/m3 and a viscosity (313.15 K; 101.33 kPa; Liquid; Falling or rolling sphere viscometry) of 80.7 ± 8.2 mPa·s. It also gave a mass density (313.15 K; 101.33 kPa; Liquid; Vibrating tube method) of 1241 ± 2 kg/m3, a viscosity (318.15 K; 101.33 kPa; Liquid; Falling or rolling sphere viscometry) of 65.7 ± 6.6 mPa·s and a mass density (318.15 K; 101.33 kPa; Liquid; Vibrating tube method) of 1237.4 ± 2 kg/m3. For the same molecule, the viscosity (323.15 K; 101.33 kPa; Liquid; Falling or rolling sphere viscometry) was 54.3 ± 5.4 mPa·s, the mass density (323.15 K; 101.33 kPa; Liquid; Vibrating tube method) was 1233.8 ± 2 kg/m3 and the viscosity (328.15 K; 101.33 kPa; Liquid; Falling or rolling sphere viscometry) was 42.4 ± 4.3 mPa·s. It also gave a mass density (328.15 K; 101.33 kPa; Liquid; Vibrating tube method) of 1230.2 ± 2 kg/m3, a viscosity [1] of 35.7 ± 3.6 mPa·s and a mass density [2] of 1226.7 ± 2 kg/m3. For the same molecule, the viscosity [3] was 30.4 ± 3.1 mPa·s, the mass density [4] was 1223.1 ± 2 kg/m3 and the viscosity [5] was 26.1 ± 2.6 mPa·s. It also gave a mass density [6] of 1219.6 ± 2 kg/m3, a viscosity [7] of 22.7 ± 2.3 mPa·s and a mass density [8] of 1216.1 ± 2 kg/m3. For the same molecule, the viscosity [9] was 19.8 ± 2 mPa·s, the mass density [10] was 1212.6 ± 2 kg/m3 and the viscosity [11] was 17.4 ± 1.7 mPa·s. The mass density [12] was 1209 ± 2 kg/m3, the mass density [13] was 1205.5 ± 2 kg/m3 and the viscosity [14] was 15.5 ± 1.6 mPa·s.
`CCCC[n+]1cccc(C)c1.O=S(=O)([O-])C(F)(F)F` [1-butyl-3-methylpyridinium trifluoromethanesulfonate] showed a viscosity (293.15 K; 101.33 kPa; Falling or rolling sphere viscometry; Liquid) of 165 ± 18 mPa·s, a mass density (293.15 K; 101.33 kPa; Vibrating tube method; Liquid) of 1279 ± 2 kg/m3 and a viscosity (298.15 K; 101.33 kPa; Falling or rolling sphere viscometry; Liquid) of 126 ± 13 mPa·s. For the same molecule, the mass density (298.15 K; 101.33 kPa; Vibrating tube method; Liquid) was 1275.2 ± 2 kg/m3, the viscosity (303.15 K; 101.33 kPa; Falling or rolling sphere viscometry; Liquid) was 95.7 ± 9.8 mPa·s and the mass density (303.15 K; 101.33 kPa; Vibrating tube method; Liquid) was 1271.4 ± 2 kg/m3. It also gave a viscosity (308.15 K; 101.33 kPa; Falling or rolling sphere viscometry; Liquid) of 75.9 ± 7.7 mPa·s, a mass density (308.15 K; 101.33 kPa; Vibrating tube method; Liquid) of 1267.6 ± 2 kg/m3 and a viscosity (313.15 K; 101.33 kPa; Falling or rolling sphere viscometry; Liquid) of 60.2 ± 6 mPa·s. For the same molecule, the mass density (313.15 K; 101.33 kPa; Vibrating tube method; Liquid) was 1263.8 ± 2 kg/m3, the viscosity (318.15 K; 101.33 kPa; Falling or rolling sphere viscometry; Liquid) was 45.8 ± 4.6 mPa·s and the mass density (318.15 K; 101.33 kPa; Vibrating tube method; Liquid) was 1260 ± 2 kg/m3. The viscosity (323.15 K; 101.33 kPa; Falling or rolling sphere viscometry; Liquid) was 37.6 ± 3.8 mPa·s, the mass density (323.15 K; 101.33 kPa; Vibrating tube method; Liquid) was 1256.2 ± 2 kg/m3 and the viscosity (328.15 K; 101.33 kPa; Falling or rolling sphere viscometry; Liquid) was 31.4 ± 3.2 mPa·s. The mass density (328.15 K; 101.33 kPa; Vibrating tube method; Liquid) was 1252.5 ± 2 kg/m3, the viscosity (333.15 K; 101.33 kPa; Falling or rolling sphere viscometry; Liquid) was 26.3 ± 2.6 mPa·s and the mass density (333.15 K; 101.33 kPa; Vibrating tube method; Liquid) was 1248.7 ± 2 kg/m3. For the same molecule, the viscosity (338.15 K; 101.33 kPa; Falling or rolling sphere viscometry; Liquid) was 22.6 ± 2.3 mPa·s, the mass density (338.15 K; 101.33 kPa; Vibrating tube method; Liquid) was 1245 ± 2 kg/m3 and the viscosity (343.15 K; 101.33 kPa; Falling or rolling sphere viscometry; Liquid) was 19.4 ± 1.9 mPa·s. For the same molecule, the mass density (343.15 K; 101.33 kPa; Vibrating tube method; Liquid) was 1241.2 ± 2 kg/m3, the viscosity (348.15 K; 101.33 kPa; Falling or rolling sphere viscometry; Liquid) was 16.9 ± 1.7 mPa·s and the mass density (348.15 K; 101.33 kPa; Vibrating tube method; Liquid) was 1237.5 ± 2 kg/m3. It also gave a viscosity (353.15 K; 101.33 kPa; Falling or rolling sphere viscometry; Liquid) of 14.9 ± 1.5 mPa·s, a mass density (353.15 K; 101.33 kPa; Vibrating tube method; Liquid) of 1233.8 ± 2 kg/m3 and a viscosity (358.15 K; 101.33 kPa; Falling or rolling sphere viscometry; Liquid) of 13.1 ± 1.3 mPa·s. The mass density (358.15 K; 101.33 kPa; Vibrating tube method; Liquid) was 1230.1 ± 2 kg/m3, the mass density (363.13 K; 101.33 kPa; Vibrating tube method; Liquid) was 1226.5 ± 2 kg/m3 and the viscosity (363.15 K; 101.33 kPa; Falling or rolling sphere viscometry; Liquid) was 11.6 ± 1.2 mPa·s.
